In ChEMBL document CHEMBL1201862, “PubChem BioAssay data set” (2004):
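Cells were grown in 96-well plates and exposed to each compound for 48 hours at five concentrations; endpoints were interpolated linearly between bracketing concentrations, or set to the highest concentration if not reached. Abbreviation: GI50, concentration required for 50% inhibition of growth.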 Calls of active or inactive are those of the source. Rule as the data show it: active = GI50 up to about 1.1 µM and inactive = higher.

How the values were obtained:
Assay in all cases: DTP human tumour cell line panel, 48 h
A498 = tested on: A498
CCRF-CEM = tested on: CCRF-CEM
DLD-1 = tested on: DLD-1
HCC 2998 = tested on: HCC 2998
HCT-116 = tested on: HCT-116
K562 = tested on: K562
M14 = tested on: M14
NCI-H23 = tested on: NCI-H23
OVCAR-4 = tested on: OVCAR-4
OVCAR-8 = tested on: OVCAR-8
SF-295 = tested on: SF-295
SK-MEL-5 = tested on: SK-MEL-5
SNB-75 = tested on: SNB-75
SW-620 = tested on: SW-620
U-251 = tested on: U-251
UACC-257 = tested on: UACC-257
UACC-62 = tested on: UACC-62
HOP-92 = tested on: HOP-92
MDA-N = tested on: MDA-N
SR = tested on: SR

Measured: GI50

CCOc1ccc(NC(=O)CC2Sc3ccccc3NC2=O)cc1 (stereo not given)
inactive: A498 > 100 µM | CCRF-CEM > 100 µM | DLD-1 88.5 µM | HCC 2998 38.2 µM | HCT-116 25.2 µM | K562 65.2 µM | M14 > 100 µM | NCI-H23 > 100 µM | OVCAR-4 18.4 µM | OVCAR-8 21.1 µM | SF-295 > 100 µM | SK-MEL-5 > 100 µM | SNB-75 31.6 µM | SW-620 14.5 µM | U-251 45 µM | UACC-257 > 100 µM | UACC-62 > 100 µM

CCOC(=O)c1cc(/C=C/C(C)=C/C(=O)OC)oc1-c1ccccc1
inactive: A498 > 100 µM | CCRF-CEM 48.9 µM | DLD-1 66.7 µM | HCC 2998 > 100 µM | HCT-116 32.1 µM | K562 33.8 µM | M14 > 100 µM | NCI-H23 61.8 µM | OVCAR-4 63.5 µM | OVCAR-8 92.7 µM | SF-295 50.8 µM | SK-MEL-5 > 100 µM | SW-620 > 100 µM | U-251 50 µM | UACC-257 61.8 µM | UACC-62 41.3 µM

CC(=O)Nc1ccc(-c2nnc(SCC(=O)Nc3ccc(Cl)cc3Cl)o2)cc1
inactive: A498 40.8 µM | CCRF-CEM 25.4 µM | DLD-1 35.1 µM | HCC 2998 > 100 µM | HCT-116 40.5 µM | K562 28.8 µM | M14 29.3 µM | NCI-H23 26.2 µM | OVCAR-4 37.4 µM | OVCAR-8 38.2 µM | SF-295 57.8 µM | SK-MEL-5 19.5 µM | SNB-75 31.3 µM | SW-620 32.4 µM | U-251 18 µM | UACC-257 44.2 µM

Cc1nc(C(N)=S)sc1C(=O)/C=C/c1cccc(O)c1
inactive: A498 > 100 µM | CCRF-CEM 28.4 µM | DLD-1 > 100 µM | HCC 2998 > 100 µM | HOP-92 60.4 µM | K562 29.9 µM | NCI-H23 > 100 µM | OVCAR-8 > 100 µM | SF-295 > 100 µM | SK-MEL-5 > 100 µM | SNB-75 59.6 µM | SW-620 82.8 µM | U-251 > 100 µM | UACC-257 > 100 µM | UACC-62 > 100 µM

COC(OC)c1cc2c(cc1C(=O)[C@@]13CCC[C@@H]1NC(=O)O3)OCO2
inactive: A498 > 100 µM | CCRF-CEM > 100 µM | DLD-1 79.6 µM | HCT-116 > 100 µM | HOP-92 > 100 µM | K562 > 100 µM | M14 > 100 µM | NCI-H23 78.5 µM | OVCAR-4 > 100 µM | OVCAR-8 > 100 µM | SF-295 > 100 µM | SK-MEL-5 41.2 µM | SNB-75 49 µM | SW-620 > 100 µM | U-251 > 100 µM | UACC-257 > 100 µM | UACC-62 34.1 µM

Cc1ccc(S(=O)(=O)OC2C3OC(C)(C)OC3OC2C(c2cc(O)c3c(c2O)C(=O)c2ccccc2C3=O)c2cc(O)c3c(c2O)C(=O)c2ccccc2C3=O)cc1 (stereo not given)
inactive: A498 > 10 µM | CCRF-CEM > 10 µM | HCC 2998 > 10 µM | HCT-116 > 10 µM | HOP-92 > 10 µM | K562 > 10 µM | M14 > 10 µM | MDA-N > 10 µM | NCI-H23 > 10 µM | OVCAR-4 > 10 µM | OVCAR-8 > 10 µM | SF-295 > 10 µM | SK-MEL-5 > 10 µM | SNB-75 > 10 µM | SR > 10 µM | SW-620 > 10 µM | U-251 > 10 µM | UACC-257 > 10 µM | UACC-62 > 10 µM
